Test results as given in the supplement of paper PMC10307832.

Tests used:
Test in all cases: relative viability (nuclei count vs DMSO), 5 days (fraction); higher = more cells survive
[1] = compound: CN1CCN(CC1)C2=CC(=C(C=C2)NC3=NC=C4C(=N3)N(C5=CC=CC=C5C(=O)N4C)C)OC [XMD8-85] + COc1cc2c(Oc3ccc(NC(=O)C4(C(=O)Nc5ccc(F)cc5)CC4)cc3F)ccnc2cc1OCCCN1CCOCC1 [Foretinib] (partner 0.25 µM)
Summary of the method: (§1)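 Values are medians from duplicate plates. Each reflects relative viability, defined as the nuclei count of treated wells over that of vehicle wells. Lung cancer cell lines in 1536-well plates were pin-tool dosed one day after seeding with one drug alone or with a fixed anchor-drug dose plus five library-drug doses (not always all listed) in √10 steps, then fixed, stained and imaged at 4× after 5 days.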

[2] = compound: CN1CCN(CC1)C2=CC(=C(C=C2)NC3=NC=C4C(=N3)N(C5=CC=CC=C5C(=O)N4C)C)OC [XMD8-85] + CS(=O)(=O)CCNCc1ccc(-c2ccc3ncnc(Nc4ccc(OCc5cccc(F)c5)c(Cl)c4)c3c2)o1 [Lapatinib] (partner 2 µM)
Summary of the method: as §1

[3] = compound: O=C(O)C(Cc1ccccc1[N+](=O)[O-])=NNc1nc(-c2ccc(Cl)c(Cl)c2)cs1 (mixture of isomers) [4EGI-1] + COc1cccc2cc(-c3nc([C@H]4CC[C@H](C(=O)O)CC4)n4ncnc(N)c34)[nH]c12 [OSI-027] (partner 0.5 µM)
Summary of the method: as §1

[4] = compound: O=C(O)C(Cc1ccccc1[N+](=O)[O-])=NNc1nc(-c2ccc(Cl)c(Cl)c2)cs1 (mixture of isomers) [4EGI-1] + NC(=O)Nc1cc(-c2cccc(F)c2)sc1C(=O)N[C@H]1CCCNC1 [AZD7762] (partner 0.2 µM)
Summary of the method: as §1

Cell Line	relative viability ([1]; first compound 0.08 µM)	relative viability ([1]; first compound 0.253 µM)	relative viability ([1]; first compound 0.8 µM)	relative viability ([1]; first compound 2.53 µM)	relative viability ([1]; first compound 8 µM)	relative viability ([2]; first compound 0.08 µM)	relative viability ([2]; first compound 0.253 µM)	relative viability ([2]; first compound 0.8 µM)	relative viability ([2]; first compound 2.53 µM)	relative viability ([2]; first compound 8 µM)	relative viability ([3]; first compound 0.5 µM)	relative viability ([3]; first compound 1.581 µM)	relative viability ([3]; first compound 5 µM)	relative viability ([3]; first compound 15.81 µM)	relative viability ([3]; first compound 50 µM)	relative viability ([4]; first compound 0.5 µM)	relative viability ([4]; first compound 1.581 µM)	relative viability ([4]; first compound 5 µM)	relative viability ([4]; first compound 15.81 µM)	relative viability ([4]; first compound 50 µM)
NCI-H1915	1.16	1.1	1.16	1.02	0.83	0.954	1.01	1.09	0.986	0.921	0.623	0.448	0.625	0.617	0.287	0.775	0.546	0.69	0.726	0.301
LOU-NH91	–	0.966	0.863	1.02	0.843	–	0.736	0.76	0.761	0.57	0.737	–	0.752	0.432	0.675	0.811	–	0.781	0.72	0.439
NCI-H1666	0.991	0.988	0.963	0.893	0.886	0.58	0.709	0.92	0.816	0.499	0.841	0.805	0.948	0.606	0.433	0.81	0.68	0.757	0.497	0.341
NCI-H1395	1.03	0.974	1.05	0.925	0.8	0.9	1.11	0.927	0.95	0.679	0.647	0.43	0.686	0.567	0.355	0.44	–	0.393	0.344	0.374
EKVX	0.716	0.864	0.836	0.971	0.664	0.198	0.217	0.203	0.209	0.208	0.736	0.594	0.738	0.567	0.696	0.812	–	0.649	0.546	0.656
HOP-62	1.14	1.13	0.971	0.946	0.466	1.11	0.904	0.978	1.13	0.797	0.878	0.585	0.839	0.746	0.483	0.878	0.408	0.54	0.454	0.101
NCI-H1734	0.858	0.853	0.896	0.842	0.629	1.05	0.977	1.03	1.17	0.987	0.698	0.432	0.618	0.55	0.23	0.596	0.455	0.573	0.32	0.178
EMC-BAC-2	1.1	1.05	0.975	0.965	0.754	0.914	0.847	0.945	0.944	0.835	0.39	0.342	0.4	0.374	0.327	1.36	–	1.17	1	0.599
